From the supplement of paper PMC10307832

How the values were obtained:
Test in all cases: relative viability (nuclei count vs DMSO), 5 days (fraction); higher = more cells survive
Etoposide = compound: COc1cc([C@@H]2c3cc4c(cc3[C@@H](O[C@@H]3O[C@@H]5CO[C@@H](C)O[C@H]5[C@H](O)[C@H]3O)[C@H]3COC(=O)[C@H]23)OCO4)cc(OC)c1O [Etoposide]
Outline: (§1)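 After an overnight hold at 37 °C, lung cancer cell lines in 1536-well plates were pinned with five library-drug doses (not always all listed), each √10 from the next, on vehicle-anchored plates. The cells stayed 5 days without fresh medium, then a one-step fix, permeabilisation and Hoechst stain preceded 4× imaging and MetaXpress nuclear counts. A plate passed only with control CV under 25% and at least one doubling. Viability is the median, over plates, of treated-well nuclei relative to vehicle-well nuclei.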

Bleomycin = compound: CC1=C(N=C(N=C1N)[C@H](CC(=O)N)NC[C@@H](C(=O)N)N)C(=O)N[C@@H]([C@H](C2=CN=CN2)OC3C(C(C(C(O3)CO)O)O)OC4C(C(C(C(O4)CO)O)OC(=O)N)O)C(=O)N[C@H](C)[C@H]([C@H](C)C(=O)N[C@@H]([C@@H](C)O)C(=O)NCCC5=NC(=CS5)C6=NC(=CS6)C(=O)NCCC[S+](C)C)O [Bleomycin]; conditions: main component drawn
Outline: as §1

Etoposide + Pemetrexed = compound: COc1cc([C@@H]2c3cc4c(cc3[C@@H](O[C@@H]3O[C@@H]5CO[C@@H](C)O[C@H]5[C@H](O)[C@H]3O)[C@H]3COC(=O)[C@H]23)OCO4)cc(OC)c1O [Etoposide] + Nc1nc2[nH]cc(CCc3ccc(C(=O)N[C@@H](CCC(=O)O)C(=O)O)cc3)c2c(=O)[nH]1 [Pemetrexed] (partner 0.2 µM)
Outline: (§2)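 A single step with final 0.05% Triton X-100, 1% formaldehyde and 1 ug/ml Hoechst fixed the cells and stained nuclei 5 days after treatment. Lung cancer cell lines in 1536-well plates had been treated by pin tool the day after seeding with one drug alone or a fixed anchor-drug dose plus five library-drug doses (not always all listed) in √10 steps, and nuclei were counted on 4× images. Relative viability is the ratio of nuclei in treated wells to nuclei in vehicle wells, taken as the median of duplicate plates.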

Bleomycin + OSI-027 = compound: CC1=C(N=C(N=C1N)[C@H](CC(=O)N)NC[C@@H](C(=O)N)N)C(=O)N[C@@H]([C@H](C2=CN=CN2)OC3C(C(C(C(O3)CO)O)O)OC4C(C(C(C(O4)CO)O)OC(=O)N)O)C(=O)N[C@H](C)[C@H]([C@H](C)C(=O)N[C@@H]([C@@H](C)O)C(=O)NCCC5=NC(=CS5)C6=NC(=CS6)C(=O)NCCC[S+](C)C)O [Bleomycin] + COc1cccc2cc(-c3nc([C@H]4CC[C@H](C(=O)O)CC4)n4ncnc(N)c34)[nH]c12 [OSI-027] (partner 0.5 µM); conditions: main component drawn
Outline: as §2

Row | Cell Line | relative viability (Etoposide; 0.01 µM) | relative viability (Etoposide; 0.03162 µM) | relative viability (Etoposide; 0.1 µM) | relative viability (Etoposide; 0.3162 µM) | relative viability (Etoposide; 1 µM) | relative viability (Bleomycin; 0.01 µM) | relative viability (Bleomycin; 0.03162 µM) | relative viability (Bleomycin; 0.1 µM) | relative viability (Bleomycin; 0.3162 µM) | relative viability (Bleomycin; 1 µM) | relative viability (Etoposide + Pemetrexed; first compound 0.01 µM) | relative viability (Etoposide + Pemetrexed; first compound 0.03162 µM) | relative viability (Etoposide + Pemetrexed; first compound 0.1 µM) | relative viability (Etoposide + Pemetrexed; first compound 0.3162 µM) | relative viability (Etoposide + Pemetrexed; first compound 1 µM) | relative viability (Bleomycin + OSI-027; first compound 0.01 µM) | relative viability (Bleomycin + OSI-027; first compound 0.03162 µM) | relative viability (Bleomycin + OSI-027; first compound 0.1 µM) | relative viability (Bleomycin + OSI-027; first compound 0.3162 µM) | relative viability (Bleomycin + OSI-027; first compound 1 µM)
1 | HCC-15 | 1.01 | 1.07 | 1 | 0.485 | 0.182 | 0.937 | 0.873 | 0.879 | 0.424 | 0.382 | 0.213 | 0.222 | 0.218 | 0.183 | 0.171 | 0.645 | 0.612 | 0.533 | 0.182 | 0.152
2 | HCC-44 | 1.06 | 1.03 | 1.02 | 0.899 | 0.594 | 0.587 | 0.445 | 0.361 | 0.226 | 0.209 | 0.64 | 0.684 | 0.801 | 0.64 | 0.601 | 0.279 | 0.38 | 0.248 | 0.205 | 0.175
3 | HCC-78 | 0.942 | 1.09 | 0.687 | 0.515 | 0.273 | 0.788 | 0.994 | 0.883 | 0.564 | 0.642 | 0.901 | 0.954 | 0.84 | 0.916 | 0.906 | 0.38 | 0.348 | 0.309 | 0.311 | 0.29
4 | HCC-366 | 0.992 | 1.07 | 0.769 | 0.377 | 0.0702 | 0.923 | 0.722 | 0.591 | 0.182 | 0.0724 | 0.174 | 0.182 | 0.272 | 0.157 | 0.0669 | 0.675 | 0.643 | 0.471 | 0.122 | 0.119
5 | HCC-827 | 1.07 | 1.08 | 0.965 | 0.659 | 0.258 | 0.983 | 1.08 | 0.9 | 0.577 | 0.277 | 0.262 | 0.266 | 0.127 | 0.236 | 0.192 | 0.71 | 0.81 | 0.6 | 0.562 | 0.193
6 | HOP-62 | 1.06 | 1.11 | 0.824 | 0.712 | 0.372 | 0.47 | 0.473 | 0.257 | 0.183 | 0.107 | 0.389 | 0.361 | 0.378 | 0.318 | 0.243 | 0.383 | 0.498 | 0.333 | 0.184 | 0.127
7 | IA-LM | 0.88 | 0.946 | 0.742 | 0.875 | 0.655 | 0.873 | 0.852 | 0.839 | 0.347 | 0.356 |  |  |  |  |  |  |  |  |  | 
8 | LC-2-ad | 0.974 | 1.07 | 0.837 | 0.718 | 0.261 | 0.756 | 0.726 | 0.549 | 0.262 | 0.192 | 0.277 | 0.279 | 0.298 | 0.277 | 0.28 | 0.552 | 0.711 | 0.382 | 0.302 | 0.221
9 | LCLC-97TM1 | 0.945 | 1.14 | 0.634 | 0.468 | 0.138 | 0.394 | 0.525 | 0.258 | 0.16 | 0.0918 | 0.176 | 0.196 | 0.168 | 0.18 | 0.118 | 0.444 | 0.403 | 0.177 | 0.196 | 0.108
10 | LCLC-103H | 0.976 | 1.15 | 0.879 | 0.942 | 0.864 | 0.916 | 0.94 | 0.982 | 0.569 | 0.382 | 0.447 | 0.477 | 0.523 | 0.473 | 0.469 | 0.39 | 0.451 | 0.468 | 0.34 | 0.219
11 | LK-2 | 0.979 | 1.31 | 0.684 | 0.663 | 0.268 | 0.686 | 0.575 | 0.485 | 0.28 | 0.277 | 0.36 | 0.315 | 0.208 | 0.224 | 0.186 | 0.192 | 0.202 | 0.177 | 0.167 | 0.162
12 | LOU-NH91 | 0.978 | 1.01 | 0.853 | 0.826 | 0.486 | 0.838 | 0.689 | 0.614 | 0.448 | 0.339 | 0.403 | 0.414 | 0.469 | 0.359 | 0.346 | 0.667 | 0.564 | 0.555 | 0.503 | 0.306
13 | NCI-H727 | 0.945 | 1.04 | 0.586 | 0.87 | 0.852 | 0.891 | 0.777 | 0.831 | 0.391 | 0.687 |  |  |  |  |  | 0.731 | 0.685 | 0.637 |  | 0.528
14 | NCI-H1299 | 1.01 | 0.995 | 1.07 | 0.932 | 0.779 | 0.937 | 1.03 | 0.936 | 0.601 | 0.287 |  |  |  |  |  |  |  |  |  | 
15 | NCI-H1623 | 0.859 | 0.907 | 0.687 | 0.818 | 0.303 | 0.84 | 0.936 | 0.807 | 0.466 | 0.469 |  |  |  |  |  | 0.406 | 0.432 | 0.464 | 0.363 | 0.322
16 | NCI-H1703 | 0.761 | 1.03 | 0.75 | 0.711 | 0.371 | 0.928 | 0.895 | 0.826 | 0.381 | 0.272 |  |  |  |  |  |  |  |  |  | 
